# Reference: patent US20060013897A1, “Compositions for cancer therapy saponins or sapogenins” (priority 2002, published 2006)
# How the values were obtained:
# Assay type in all cases: cell-based
# [1] = tested on: human glioma tumor cells (U87); assay: MTT cytotoxicity assay, U87 cells; details: 15 μg/mL (individual components at similar concentrations), MTT at 24 hours
# From the text: (§1) Preparation of Compositions: A process of preparing a composition comprising of Rh2, aPPD, and aPPT saponins and/or sapogenins from plants selected from the group consisting of panax ginseng, panax quinguefol and panax notoginseng, or a sapogenin source from some other plant, and proceeding according to the following steps: • (a) mixing the ginsenoside extract with water; • (b) (i) mixing the ginsenoside extract and water with a short-chain (1-5 carbon) alkali-metal alcoholate solution or a hydroxide-ethanol solution to produce a mixture; and • (ii) placing the resultant mixture in a reaction tank so that the resultant mixture can undergo chemical reactions at a temperature between 240 and 300° C. and at a pressure between 3.5 and 8.4 MPa; or • (c) (i) alternatively, mixing the ginsenosides extract with ethanol; • (ii) mixing the extract and ethanol with alkali-metal alcoholates solution to produce a mixture, and • (iii) placing the resultant mixture in a reaction tank so that the resultant mixture can undergo chemical reactions at a temperature between 240 and 300° C. and at a pressure between 3.5 and 8.4 MPa; and • (d) after the reaction is completed, collecting an intermediate product of a mix of saponins and/or sapogenins from the ethanol mixture. Cytotoxicity was measured using a standard microculture tetrazolium assay (MTT) (Alley, M C et al, Cancer Research 48:589-601, 1988). Exponentially growing cultures of tumor cells, including multi-drug resistant cell lines, were used to make microtiter plate cultures. Cells were seeded at 1.2×10^3 cells per well in 96-well plates, and grown overnight at 37° C. Test compounds were then added. Cells were treated for 24 hours. To determine the number of viable cells in each well, the MTT dye was added (3-(4,5-dimethylthiazol-2-yl)-2,5-diphenyltetrazolium bromide in saline) in accordance with the standard practice known in the art.
# Cultured human glioma tumor cells (U87) were treated with the saponins and sapogenins Rh2, aPPT, and aPPD, individually, at various concentrations. […]
# [2] = tested on: human breast cancer cells (MCF7); assay: MTT cytotoxicity assay, MCF7 cells; details: 15 μg/mL (individual components at similar concentrations), MTT at 24 hours
# From the text: as §1
# Cultured human breast cancer cells (MCF7) were treated with the saponins and sapogenins Rh2, aPPT, and aPPD, individually, at various concentrations. […]
# [3] = tested on: mouse melanoma cells (B16); assay: MTT cytotoxicity assay, B16 cells; details: 10 μg/mL (individual components at similar concentrations), MTT at 24 hours
# From the text: as §1
# Cultured mouse melanoma cells (B16) were treated with the saponins and sapogenins Rh2, aPPT, and aPPD, individually, at various concentrations. […]
Compound,cancer cells killed [1] [%],cancer cells killed [2] [%],cancer cells killed [3] [%]
"CC(C)=CCC[C@](C)(O)[C@H]1CC[C@]2(C)[C@@H]1[C@H](O)C[C@@H]1[C@@]3(C)CC[C@H](O)C(C)(C)[C@@H]3[C@@H](O)C[C@]12C [aPPT, aglycon protopanaxatriol]",29,68,47
"CC(C)=CCC[C@@](C)(O)[C@H]1CC[C@]2(C)[C@@H]1[C@H](O)C[C@@H]1[C@@]3(C)CC[C@H](O)C(C)(C)[C@@H]3CC[C@]12C [aPPD, aglycon protopanaxadiol]",52,69,44
"CC(C)=CCC[C@](C)(O)[C@H]1CC[C@]2(C)[C@@H]1[C@H](O)C[C@@H]1[C@@]3(C)CC[C@H](O[C@@H]4O[C@H](CO)[C@@H](O)[C@H](O)[C@H]4O)C(C)(C)[C@@H]3CC[C@]12C [Rh2, 3-O-β-D-glucopyranosyl-20(s)-protopanaxadiol]",64,68,56
